Reference: PubChem BioAssay (NCI)
Where “and” joins values, the source holds several entries; their conditions need not be identical. Equal values may be shown once.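 Step 1: Grow cells in 96-well plates. Step 2: Expose to compound for 48 hours at 5 concentrations. Step 3: Interpolate endpoints linearly; if unreached, use highest concentration. GI50: concentration for 50% inhibition of growth. TGI is the concentration that stops growth completely.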

Columns and labels:
Assay in all cases: NCI-60 cell line screen, 48 h
SNB-75 CNS = tested on: SNB-75 CNS
SF-295 CNS = tested on: SF-295 CNS
NCI-H226 lung = tested on: NCI-H226 lung
OVCAR-8 ovarian = tested on: OVCAR-8 ovarian
MDA-MB-435 = tested on: MDA-MB-435
EKVX NSCLC = tested on: EKVX NSCLC
HT29 colon = tested on: HT29 colon
HCC-2998 colon = tested on: HCC-2998 colon
SK-OV-3 ovarian = tested on: SK-OV-3 ovarian
OVCAR-4 ovarian = tested on: OVCAR-4 ovarian

SMILES | GI50 (SNB-75 CNS) | TGI (SNB-75 CNS) | GI50 (SF-295 CNS) [µM] | TGI (SF-295 CNS) | GI50 (NCI-H226 lung) | TGI (NCI-H226 lung) | GI50 (OVCAR-8 ovarian) | TGI (OVCAR-8 ovarian) | GI50 (MDA-MB-435) [µM] | TGI (MDA-MB-435) | GI50 (EKVX NSCLC) | TGI (EKVX NSCLC) | GI50 (HT29 colon) [µM] | TGI (HT29 colon) | GI50 (HCC-2998 colon) | TGI (HCC-2998 colon) | GI50 (SK-OV-3 ovarian) | TGI (SK-OV-3 ovarian) | GI50 (OVCAR-4 ovarian) | TGI (OVCAR-4 ovarian)
O=C(O)CSc1cc(NS(=O)(=O)c2ccc(Br)cc2)c2ccccc2c1O | 24 µM | 42.4 µM | 16 | 30.1 µM | 20.1 µM | 44.9 µM | 3.73 µM | 11 µM | 1.88 | 3.41 µM | 13.8 µM | 32.8 µM | 18.1 | 78.1 µM | 18.4 µM | 33.9 µM | 18.7 µM | 33.2 µM | 1.62 µM | 3.05 µM
O=C1C[C@@H]2OCC=C3C[N+]4([O-])CC[C@]56c7ccccc7N1[C@H]5[C@H]2[C@H]3C[C@@H]64 (some centres undefined) | > 100 µM | > 100 µM | > 100 | > 100 µM | > 100 µM | > 100 µM | > 100 µM | > 100 µM | > 100 | > 100 µM | > 100 µM | > 100 µM | > 100 | > 100 µM | > 100 µM | > 100 µM | > 100 µM | > 100 µM | > 100 µM | > 100 µM
CC1(C)CC2=NO[Se]3=C2C(=NO3)C1 | – | 6.96 µM | – | 7.6 µM | – | 11.6 µM | – | 16.4 µM | – | 15.5 µM | – | 9.68 µM | – | 10.1 µM | – | 16.8 µM | – | 13.1 µM | – | 21.7 µM
N#C[Se]CCN1C(=O)c2ccccc2C1=O | 2.09 µM | 5.56 µM | 1.65 | 3.7 µM | 1.6 µM | 3.82 µM | 2.66 µM | 8.26 µM | 1.73 | 3.83 µM | 2.88 µM | 10.3 µM | 2.84 | 8.29 µM | 3.87 µM | 15.2 µM | 3.46 µM | 8.72 µM | 4.17 µM | 23.9 µM
N=C(N)SCc1ccc(Cl)c2ccccc12 (tested in a mixture with another compound) | – | 23.1 µM and 19.2 µM | – | 24.9 µM and 23.7 µM | – | 30.3 µM and 28.6 µM | – | 50.1 µM and > 77.8 µM | – | 21.5 µM and 22.2 µM | – | 24.5 µM and 27.5 µM | – | 24.2 µM and 26.4 µM | – | 6.66 µM and 4.89 µM | – | 25.9 µM and 28.9 µM | – | 15.9 µM and 24.9 µM
COc1ccc([C@@H]2[C@@H](Oc3ccccc3)C(=O)N2c2cc(OC)c(OC)c(OC)c2)cc1F | 0.0567 µM | > 100 µM | 0.0785 | > 100 µM | 0.99 µM | > 100 µM | 0.189 µM | > 100 µM | 0.0264 | 0.076 µM | 0.465 µM | > 100 µM | 0.211 | 0.684 µM | 0.524 µM | > 100 µM | 0.38 µM | > 100 µM | 2.57 µM | > 100 µM
Oc1c(Br)cc(Cl)cc1C(c1cc(Cl)cc(Br)c1O)C(Cl)(Cl)Cl | 2.64 µM | 12.3 µM | 1.59 | 5.29 µM | 2.72 µM | 8.61 µM | 2.86 µM | 13 µM | 2.94 | 10.1 µM | 2.72 µM | 11.3 µM | 3.26 | 10.6 µM | 2.63 µM | 8.48 µM | 2.94 µM | 8.93 µM | 2.86 µM | 13.1 µM
CCCCCCCCCCN=C(N)c1ccc(N2CCN(c3ccc(C(N)=NCCCCCCCCCC)cc3)CC2)cc1 | 2.34 µM | > 50 µM | 1.81 | 6.12 µM | 7.72 µM | > 50 µM | 2.62 µM | > 50 µM | 2.83 | 12.6 µM | 4.44 µM | 21.1 µM | 3.37 | > 50 µM | 3.51 µM | > 50 µM | 4.08 µM | > 50 µM | 6.5 µM | > 50 µM
c1cc(OCCCCCOc2cccc(-c3nc4ccccc4[nH]3)c2)cc(-c2nc3ccccc3[nH]2)c1 | 3.4 µM | > 100 µM | 1.65 | 6.57 µM | 1.92 µM | > 100 µM | 2.53 µM | 6.15 µM | 2.26 | 6.74 µM | 2.21 µM | 6.97 µM | 2.87 | > 100 µM | 3.32 µM | 28 µM | 2.51 µM | 18.1 µM | 2.03 µM | > 100 µM
COc1cc2c(cc1OCCN1CCN(CCN3C(=O)c4cccc5cccc(c45)C3=O)CC1)N=C[C@@H]1CCCN1C2=O | 20.4 µM | 37.5 µM | 22.9 | 41.1 µM | 20.1 µM | 40.3 µM | 19.9 µM | 44.3 µM | 23.4 | 48.7 µM | 21.1 µM | 45.7 µM | 22.6 | 43.9 µM | – | – | 27.8 µM | 46.5 µM | 24.6 µM | 47.3 µM
N#CC1=C(N)Oc2c(ccc3ccccc23)C1c1cc2ccccc2n2nnnc12 (centres undefined) | – | – | 0.832 | > 100 µM | 3.08 µM | > 100 µM | 2.85 µM | > 100 µM | 0.3 | 1.01 µM | 5.8 µM | > 100 µM | 3 | > 100 µM | 2.36 µM | > 100 µM | 2.05 µM | > 100 µM | 18.7 µM | > 100 µM
O=C(CCN1CCOCC1)Nc1ccc(Cn2nnc3c2C(=O)c2nnn(Cc4ccc(NC(=O)CCN5CCOCC5)cc4)c2C3=O)cc1 | 1.93 µM | 3.6 µM | > 25.7 | > 100 µM | > 100 µM | > 100 µM | > 100 µM | > 100 µM | 0.324 | 0.799 µM | > 100 µM | > 100 µM | 1.24 | > 100 µM | 2.62 µM | 6.68 µM | > 84 µM | > 100 µM | 1.36 µM | 3.44 µM
O=C1NC(=O)C2C3C=CC(C12)C1C2C(=O)NC(=O)C2C31 (centres undefined) | 291 µM | 249 µM and > 856 µM | 827 | 199 µM and > 1000 µM | > 484 µM | 250 µM and > 762 µM | 880 µM | 206 µM and > 1000 µM | > 250 | > 1000 µM | 543 µM | 250 µM and > 1000 µM | 657 | 194 µM and > 1000 µM | > 587 µM | 250 µM and > 1000 µM | > 767 µM | 108 µM and > 1000 µM | > 1000 µM | 250 µM and > 1000 µM
COc1nc(N)nc2nc[nH]c12 | 275 µM and 263 µM | 342 µM and 679 µM and > 929 µM | > 881 | > 1000 µM | 400 µM and 380 µM | 458 µM and 800 µM and > 1000 µM | > 800 µM and 579 µM | > 800 µM | > 801 | > 1000 µM | 651 µM and > 759 µM | > 387 µM and 800 µM and > 1000 µM | > 800 | 500 µM and > 800 µM and > 1000 µM | > 800 µM and 574 µM | > 868 µM | 776 µM and 508 µM | 212 µM and 800 µM and > 1000 µM | > 800 µM and 982 µM | 500 µM and > 800 µM and > 1000 µM
CN(C)c1ccc(/C=N/N=C(\C#N)[S][Sn]([Cl])([c]2ccccc2)[c]2ccccc2)cc1 | 1.07 µM | 2.36 µM | 2.29 | 5.48 µM | 1.82 µM | 3.46 µM | 2.15 µM | 4.91 µM | 1.5 | 3.01 µM | 1.67 µM | 4.12 µM | 2.08 | 4.18 µM | 1.28 µM | 2.61 µM | 2.78 µM | – | 1.32 µM | 2.63 µM
CC1=C(C(=O)Nc2ccc3[nH]ncc3c2)C(c2ccc(F)cc2)N=C(c2ccc(C(F)(F)F)nc2)N1 (centres undefined) | 2.4 µM | 15.9 µM | 9.81 | > 25 µM | 3.99 µM | > 25 µM | 20.2 µM | > 25 µM | 4.97 | 12 µM | 6.19 µM | > 25 µM | 11.5 | > 25 µM | > 25 µM | > 25 µM | > 25 µM | > 25 µM | 12.4 µM | > 25 µM
O=C(NO)c1ccc(CNc2cccc3nc(C4CC4)n(-c4ccccc4)c(=O)c23)cc1 | 1.78 µM | 5.93 µM | – | – | 2.93 µM | 15 µM | 1.65 µM | 5.82 µM | 1.86 | 3.91 µM | 2.55 µM | 7.43 µM | 2.16 | 5.62 µM | 1.81 µM | 3.44 µM | 2.15 µM | 5.4 µM | 2.28 µM | 21.9 µM
O=C1c2ccccc2-c2c1c1c(O)cccc1n2Cc1ccccc1 | – | – | 6.12 | 18.4 µM | > 100 µM | > 100 µM | 28.6 µM | > 100 µM | 19.1 | > 100 µM | 16.5 µM | 69.2 µM | 38.2 | > 100 µM | 12.7 µM | 39.1 µM | 14.5 µM | 41.7 µM | 7.14 µM | 43.9 µM
O=C1c2ccccc2N1C(=O)c1ccccc1[N+](=O)[O-] | – | > 100 µM | – | – | – | > 100 µM | – | > 100 µM | – | > 100 µM | – | > 100 µM | – | > 100 µM | – | > 100 µM | – | > 100 µM | – | > 100 µM
O=S(=O)(O)C(c1ccccc1)C(O)c1ccccc1 (centres undefined) | – | > 100 µM | – | > 100 µM | – | > 100 µM | – | > 100 µM | – | > 100 µM | – | > 100 µM | – | > 100 µM | – | – | – | > 100 µM | – | > 100 µM
